Laboratory results reported in BindingDB's records for patent US20250313563 (The Broad Institute, 2025).

Key:
[1] = molecular target: Glycogen synthase kinase-3 alpha (Homo sapiens, UniProt P49840); assay: TR-FRET Assay
Method: (§1) The assay was performed in a white, 384 well, low volume, flat bottom plate (Grenier). […] The kinase activity was quenched with 2 μL of 250 mM EDTA. A 10 μL volume of 40 nM Strepavidin-d2, 2 nM Tb2+-pSer641 antibody in TR-FRET Detection Buffer (Invitrogen) was then added.

[2] = molecular target: Glycogen synthase kinase-3 beta (Homo sapiens, UniProt P49841); assay: TR-FRET Assay
Chain of Glycogen synthase kinase-3 beta (P49841 whole entry): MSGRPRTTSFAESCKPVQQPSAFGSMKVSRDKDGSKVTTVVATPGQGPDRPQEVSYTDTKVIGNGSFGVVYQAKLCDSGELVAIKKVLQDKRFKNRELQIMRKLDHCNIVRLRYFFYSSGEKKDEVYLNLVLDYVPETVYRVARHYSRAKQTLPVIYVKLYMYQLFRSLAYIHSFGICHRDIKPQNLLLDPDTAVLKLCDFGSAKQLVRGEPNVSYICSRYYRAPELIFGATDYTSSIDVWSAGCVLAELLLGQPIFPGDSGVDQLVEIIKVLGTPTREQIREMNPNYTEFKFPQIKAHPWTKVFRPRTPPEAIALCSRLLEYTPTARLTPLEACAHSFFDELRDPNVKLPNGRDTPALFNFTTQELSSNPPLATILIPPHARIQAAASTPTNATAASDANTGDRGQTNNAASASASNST
Method: as §1

Chain of Glycogen synthase kinase-3 alpha (P49840 whole entry): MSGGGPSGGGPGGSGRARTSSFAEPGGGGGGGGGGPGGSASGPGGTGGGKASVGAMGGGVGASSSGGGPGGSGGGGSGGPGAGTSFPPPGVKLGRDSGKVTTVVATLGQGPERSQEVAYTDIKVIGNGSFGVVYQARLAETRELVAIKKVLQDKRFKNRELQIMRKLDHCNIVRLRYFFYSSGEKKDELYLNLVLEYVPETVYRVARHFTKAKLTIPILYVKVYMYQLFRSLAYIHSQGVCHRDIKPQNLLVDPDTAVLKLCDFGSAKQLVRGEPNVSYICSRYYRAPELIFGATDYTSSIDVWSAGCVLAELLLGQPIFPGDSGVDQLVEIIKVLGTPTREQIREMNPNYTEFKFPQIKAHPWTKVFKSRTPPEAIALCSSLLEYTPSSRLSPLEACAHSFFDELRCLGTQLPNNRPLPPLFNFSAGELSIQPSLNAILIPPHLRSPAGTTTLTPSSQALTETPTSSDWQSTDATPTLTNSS

Row | SMILES | IC50 [1] [µM] | IC50 [2] [µM]
1 | CC1N=NC2=C1C1(CN(S(=O)(=O)CC3CC3)C1)C1=C(CC(C)(C)CC1=O)N2 (stereo not given) [US20250313563, Compound 107828] | < 0.1 | 0.1 to 1
2 | CC(C)(C)CC1N=NC2=C1C1(CN(S(=O)(=O)CC3CC3)C1)C1=C(CC3(CCC3)CC1=O)N2 (stereo not given) [US20250313563, Compound 107829] | 1 to 5 | 0.1 to 1
3 | CC(C)(C)CC1N=NC2=C1[C@](C)(c1cccc(S(=O)(=O)CC3CC3)c1)C1=C(CC(C)(C)NC1=O)N2 (stereo not given in full) [US20250313563, Compound 108005] | 0.1 to 1 | 0.1 to 1
4 | CC(C)(C)CC1N=NC2=C1[C@@](C)(c1cccc(S(=O)(=O)CC3CC3)c1)C1=C(CC(C)(C)NC1=O)N2 (stereo not given in full) [US20250313563, Compound 108006] | > 5 | > 5
5 | CC(C)(C)CC1N=NC2=C1[C@](C)(c1cccc(S(=O)(=O)N3CCCC3)c1)C1=C(CC(C)(C)NC1=O)N2 (stereo not given in full) [US20250313563, Compound 108791] | 1 to 5 | 0.1 to 1
6 | CC(C)(C)CC1N=NC2=C1[C@@](C)(c1cccc(S(=O)(=O)N3CCCC3)c1)C1=C(CC(C)(C)NC1=O)N2 (stereo not given in full) [US20250313563, Compound 108794] | > 5 | > 5
7 | COc1cncc(F)c1-c1cccc([C@]2(C)C3=C(CC(C)(C)CC3=O)NC3=C2C(CC(C)(C)C)N=N3)c1 (stereo not given in full) [US20250313563, Compound 108954] | 1 to 5 | 0.1 to 1
8 | COc1cncc(F)c1-c1cccc([C@@]2(C)C3=C(CC(C)(C)CC3=O)NC3=C2C(CC(C)(C)C)N=N3)c1 (stereo not given in full) [US20250313563, Compound 108956] | > 5 | 1 to 5
9 | CC1(C)CC(=O)C2=C(C1)NC1=C(C(C3CC3)N=N1)C21CN(S(=O)(=O)CC2CC2)C1 (stereo not given) [US20250313563, Compound 109152] | 0.1 to 1 | 0.1 to 1
10 | CC(C)(C)CC1N=NC2=C1[C@](C)(c1ccccc1)C1=C(CC(C)(C)NC1=O)N2 (stereo not given in full) [US20250313563, Compound 114531] | > 5 | 1 to 5
11 | CC1(C)CC2=C(C(=O)N1)[C@@](C)(c1cccc(S(C)(=O)=O)c1)C1=C(N=NC1C1CC1)N2 (stereo not given in full) [US20250313563, Compound 114679] | < 0.1 | 0.1 to 1
12 | CC(C)(C)CC1=C2C(N=N1)NC1=C(C(=O)CC(C)(C)C1)[C@@]21COc2ccccc21 (stereo not given in full) [US20250313563, Compound 117093] | 1 to 5 | 0.1 to 1
13 | CN1C[C@]2(C3=C(CC(C)(C)CC3=O)NC3N=NC(C4CC(F)(F)C4)=C32)c2ccccc21 (stereo not given in full) [US20250313563, Compound 119047] | 1 to 5 | 0.1 to 1
14 | CN1C[C@@]2(C3=C(CC(C)(C)CC3=O)NC3N=NC(C4CC(F)(F)C4)=C32)c2ccccc21 (stereo not given in full) [US20250313563, Compound 119048] | 1 to 5 | 0.1 to 1
15 | CC(C)(C)CC1N=NC2=C1[C@](C)(c1cc(S(C)(=O)=O)ccc1F)C1=C(CC(C)(C)CC1=O)N2 (stereo not given in full) [US20250313563, Compound 125976] | 1 to 5 | 0.1 to 1
16 | CN1C[C@]2(C3=C(CC(C)(C)CC3=O)NC3N=NC(CC(C)(C)C)=C32)c2ccccc21 (stereo not given in full) [US20250313563, Compound 125978] | 1 to 5 | 0.1 to 1
17 | CN(C)S(=O)(=O)c1cccc([C@]2(C)C3=C(CC(C)(C)CC3=O)NC3=C2C(CC(C)(C)C)N=N3)c1 (stereo not given in full) [US20250313563, Compound 126012] | 1 to 5 | 0.1 to 1
18 | Cn1cncc1-c1cccc([C@]2(C)C3=C(CC(C)(C)CC3=O)NC3=C2C(CC(C)(C)C)N=N3)c1 (stereo not given in full) [US20250313563, Compound 126014] | 0.1 to 1 | 0.1 to 1
19 | Cn1cncc1-c1cccc([C@@]2(C)C3=C(CC(C)(C)CC3=O)NC3=C2C(CC(C)(C)C)N=N3)c1 (stereo not given in full) [US20250313563, Compound 126015] | > 5 | > 5
20 | C[S@+]([O-])c1cccc([C@]2(C)C3=C(CC(C)(C)CC3=O)NC3=C2C(CC(C)(C)C)N=N3)c1 (stereo not given in full) [US20250313563, Compound 126190] | 1 to 5 | 0.1 to 1
21 | C[S@@+]([O-])c1cccc([C@]2(C)C3=C(CC(C)(C)CC3=O)NC3=C2C(CC(C)(C)C)N=N3)c1 (stereo not given in full) [US20250313563, Compound 126191B:] | > 5 | 0.1 to 1
22 | Cn1ccc(-c2cccc([C@]3(C)C4=C(CC(C)(C)CC4=O)NC4=C3C(CC(C)(C)C)N=N4)c2)n1 (stereo not given in full) [US20250313563, Compound 126366] | 1 to 5 | 0.1 to 1
23 | Cn1cc(-c2cccc([C@@]3(C)C4=C(CC(C)(C)CC4=O)NC4=C3C(CC(C)(C)C)N=N4)c2)cn1 (stereo not given in full) [US20250313563, Compound 126367] | > 5 | > 5
24 | Cn1cc(-c2cccc([C@]3(C)C4=C(CC(C)(C)CC4=O)NC4=C3C(CC(C)(C)C)N=N4)c2)cn1 (stereo not given in full) [US20250313563, Compound 126393] | 1 to 5 | 0.1 to 1
25 | CC(C)(C)CC1N=NC2=C1[C@](C)(c1cccc(S(=O)(=O)C(F)(F)F)c1)C1=C(CC(C)(C)CC1=O)N2 (stereo not given in full) [US20250313563, Compound 126395] | 1 to 5 | 0.1 to 1
26 | CC(C)(C)CC1N=NC2=C1[C@@](C)(c1cccc(S(=O)(=O)C(F)(F)F)c1)C1=C(CC(C)(C)CC1=O)N2 (stereo not given in full) [US20250313563, Compound 126396] | > 5 | > 5
27 | CC1(C)CC(=O)C2=C(C1)NC1N=NC(C3CC(F)(F)C3)=C1[C@@]21COc2ccccc21 (stereo not given in full) [US20250313563, Compound 127430] | 1 to 5 | 0.1 to 1

Row | SMILES | IC50 [1] [µM] | IC50 [2] [µM]
28 | CCC1(c2ccc(F)cc2)C2=C(N=NC2)NC2=C1C(=O)CC(C)(C)C2 (stereo not given) [US20250313563, Compound 772965] | 1 to 5 | > 5
29 | CC(C)(C)CC1=C2C(N=N1)NC1=C(C(=O)CC(C)(C)C1)[C@]21CCc2cc(F)ccc21 (stereo not given in full) [US20250313563, Compound 782424] | 0.1 to 1 | < 0.1
30 | CC(C)(C)CC1=C2C(N=N1)NC1=C(C(=O)CC(C)(C)C1)[C@@]21CCc2cc(F)ccc21 (stereo not given in full) [US20250313563, Compound 782425] | 0.1 to 1 | 0.1 to 1
31 | CC(C)(C)CC1=C2C(N=N1)NC1=C(C(=O)CC(C)(C)C1)C21CCc2ccc(F)cc21 (stereo not given) [US20250313563, Compound 784440] | 0.1 to 1 | < 0.1
32 | CC1(C)CC(=O)C2=C(C1)NC1=C(CN=N1)C2(C)c1cc(F)cc(F)c1 (stereo not given) [US20250313563, Compound 785735] | 0.1 to 1 | > 5
33 | Cc1cccc(C2(C)C3=C(N=NC3)NC3=C2C(=O)CC(C)(C)C3)c1 (stereo not given) [US20250313563, Compound 785736] | < 0.1 | 0.1 to 1
34 | CCC1(c2ccccc2)C2=C(N=NC2)NC2=C1C(=O)CC1(CCCC1)C2 (stereo not given) [US20250313563, Compound 785737] | < 0.1 | 0.1 to 1
35 | CCC1(c2cccc(C)c2)C2=CN=NC2NC2=C1C(=O)CC(C)(C)C2 (stereo not given) [US20250313563, Compound 785738] | < 0.1 | 0.1 to 1
36 | CCC1(c2ccc(C)cc2)C2=C(N=NC2)NC2=C1C(=O)CC(C)(C)C2 (stereo not given) [US20250313563, Compound 785739] | 0.1 to 1 | > 5
37 | CCC1(c2cccc(C(F)(F)F)c2)C2=CN=NC2NC2=C1C(=O)CC(C)(C)C2 (stereo not given) [US20250313563, Compound 785762] | < 0.1 | < 0.1
38 | CCC1(CC)C2=C(CC(C)(C)CC2=O)NC2=C1C(C)N=N2 (stereo not given) [US20250313563, Compound 786061] | 0.1 to 1 | > 1.67
39 | CC1(C)CC(=O)C2=C(C1)NC1=C(CN=N1)C2(C)C [US20250313563, Compound 786065] | 1 to 5 | > 1.67
40 | CC1N=NC2=C1C1(CCCC1)C1=C(CC(C)(C)CC1=O)N2 (stereo not given) [US20250313563, Compound 786072] | < 0.1 | < 0.1
41 | CC[C@]1(c2ccccc2)C2=CN=NC2NC2=C1C(=O)C[C@H](C)C2 (stereo not given in full) [US20250313563, Compound 789010] | 0.1 to 1 | 0.1 to 1
42 | CC[C@@]1(c2ccccc2)C2=CN=NC2NC2=C1C(=O)C[C@@H](C)C2 (stereo not given in full) [US20250313563, Compound 789013] | 0.1 to 1 | > 5
43 | CC1(C)CC(=O)C2=C(C1)NC1=C(CN=N1)C2(C)c1cccc(Br)c1 (stereo not given) [US20250313563, Compound 789277] | < 0.1 | 0.1 to 1
44 | CCC1(c2cccc(Br)c2)C2=C(N=NC2)NC2=C1C(=O)CC(C)(C)C2 (stereo not given) [US20250313563, Compound 789312] | < 0.1 | 0.1 to 1
45 | CCC1(c2ccccc2)C2=C(N=NC2)NC2=C1C(=O)CC1(CC1)C2 (stereo not given) [US20250313563, Compound 789330] | 0.1 to 1 | 1 to 5
46 | C[C@H]1CC(=O)C2=C(C1)NC1=C(CN=N1)[C@]2(C)c1ccccc1 [US20250313563, Compound 789332] | 0.1 to 1 | 0.1 to 1
47 | C[C@H]1CC(=O)C2=C(C1)NC1=C(CN=N1)[C@@]2(C)c1ccccc1 [US20250313563, Compound 789334] | 0.1 to 1 | 1 to 5
48 | CCC1(c2cccc(Cl)c2)C2=C(CC(C)(C)CC2=O)NC2N=NC(C)=C21 (stereo not given) [US20250313563, Compound 789336] | < 0.1 | 0.1 to 1
49 | CC1(C)CC(=O)C2=C(C1)NC1=C(CN=N1)C2(C)c1cc(Cl)cc(Cl)c1 (stereo not given) [US20250313563, Compound 789337] | 0.1 to 1 | 1 to 5
50 | CC[C@]1(c2ccc(C)cc2)C2=CN=NC2NC2=C1C(=O)CC(C)(C)C2 (stereo not given in full) [US20250313563, Compound 789457] | 0.1 to 1 | 1 to 5
51 | CC[C@@]1(c2ccc(C)cc2)C2=CN=NC2NC2=C1C(=O)CC(C)(C)C2 (stereo not given in full) [US20250313563, Compound 789458] | > 5 | > 5
52 | CCC1(c2ccccc2)C2=C(CC(C)(C)CC2=O)NC2N=NC(Br)=C21 (stereo not given) [US20250313563, Compound 789459] | < 0.1 | < 0.1
53 | CC[C@]1(c2cccc(-c3ccncc3)c2)C2=CN=NC2NC2=C1C(=O)CC(C)(C)[C@H]2F (stereo not given in full) [US20250313563, Compound 959342] | 1 to 5 | –
